Experimental data published in US20120172359A1 (NOVARTIS AG, priority 2010, published 2012).
Structures can show the parent of a compound that is named as a salt.

biological target: Human BACE-1 (Homo sapiens, UniProt P56817); assay: Test 1: Inhibition of Human BACE-1; type: biochemical; settings: Test 1; recombinant BACE-1 (extracellular domain), acetate buffer pH 4.5, 1 hour with test compound at room temperature, fluorescence-quenched peptide substrate; read-out: Bace IC50
Sequence (P56817 46-457 limits assumed): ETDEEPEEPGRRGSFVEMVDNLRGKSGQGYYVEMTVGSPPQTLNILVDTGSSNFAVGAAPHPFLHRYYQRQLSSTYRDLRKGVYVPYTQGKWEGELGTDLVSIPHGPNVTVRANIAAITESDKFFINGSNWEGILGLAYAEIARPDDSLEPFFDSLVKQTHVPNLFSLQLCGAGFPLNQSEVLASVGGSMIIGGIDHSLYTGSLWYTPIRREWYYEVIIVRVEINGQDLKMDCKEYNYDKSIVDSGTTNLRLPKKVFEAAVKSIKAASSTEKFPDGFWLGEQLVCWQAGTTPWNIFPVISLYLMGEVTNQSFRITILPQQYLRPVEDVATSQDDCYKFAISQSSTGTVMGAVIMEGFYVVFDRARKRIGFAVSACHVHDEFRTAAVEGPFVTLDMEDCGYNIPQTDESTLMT

| Structure (SMILES) | IC50 |
| --- | --- |
| Cc1nc(C(=O)Nc2cccc(C3(C)COCC(N)=N3)c2)c(C)o1 (stereo not shown) [Example 10, 2,5-Dimethyl-oxazole-4-carboxylic acid [3-(5-amino-3-methyl-3,6-dihydro-2H-[1,4]oxazin-3-yl)-phenyl]-amide] | 590 nM |
| Cc1cc(OC(F)F)cnc1C(=O)Nc1ccc(F)c([C@]2(C(F)F)COCC(N)=N2)c1 [Example 176, 5-Difluoromethoxy-3-methyl-pyridine-2-carboxylic acid [3-((R)-5-amino-3-difluoromethyl-3,6-dihydro-2H-[1,4]oxazin-3-yl)-4-fluoro-phenyl]amide] | 18 nM |
| CC1(c2cccc(NC(=O)c3ccccn3)c2)COCC(N)=N1 (stereo not shown) [Example 13, Pyridine-2-carboxylic acid [3-(5-amino-3-methyl-3,6-dihydro-2H-[1,4]oxazin-3-yl)-phenyl]-amide] | 3400 nM |
| Cc1nc(C(=O)Nc2ccc(F)c([C@]3(C(F)F)COCC(N)=N3)c2)c(C)o1 [Example 128, 2,5-Dimethyl-oxazole-4-carboxylic acid [3-((R)-5-amino-3-difluoromethyl-3,6-dihydro-2H-[1,4]oxazin-3-yl)-4-fluoro-phenyl]-amide] | 170 nM |
| NC1=NC(CF)(c2cc(NC(=O)c3ccc(Cl)cn3)ccc2F)COC1 (stereo not shown) [Example 87, 5-Chloro-pyridine-2-carboxylic acid [3-(5-amino-3-fluoromethyl-3,6-dihydro-2H-[1,4]oxazin-3-yl)-4-fluoro-phenyl]-amide hydrochloride] | 57 nM |
| Cc1cc(OCF)cnc1C(=O)Nc1ccc(F)c([C@]2(C(F)F)COCC(N)=N2)c1 [Example 177, 5-Fluoromethoxy-3-methyl-pyridine-2-carboxylic acid [3-((R)-5-amino-3-difluoromethyl-3,6-dihydro-2H-[1,4]oxazin-3-yl)-4-fluoro-phenyl]-amide] | 29 nM |
| Cc1cc(Cl)cnc1C(=O)Nc1ccc(F)c([C@]2(CF)COCC(N)=N2)c1 [Example 92, 5-Chloro-3-methyl-pyridine-2-carboxylic acid [3-((R)-5-amino-3-fluoromethyl-3,6-dihydro-2H-[1,4]oxazin-3-yl)-4-fluoro-phenyl]-amide] | 5 nM |
| C[C@@]1(c2cc(Br)cc(NC(=O)c3ccc(Cl)cn3)c2)COCC(N)=N1 [Example 56, 5-Chloro-pyridine-2-carboxylic acid [3-((R)-5-amino-3-methyl-3,6-dihydro-2H-[1,4]oxazin-3-yl)-5-bromo-phenyl]-amide] | 101 nM |
| Cc1cnc(C(=O)Nc2ccc(F)c([C@]3(C(F)F)COCC(N)=N3)c2)cn1 [Example 48, 5-Methyl-pyrazine-2-carboxylic acid [3-((R)-5-amino-3-difluoromethyl-3,6-dihydro-2H-[1,4]oxazin-3-yl)-4-fluoro-phenyl]-amide] | 550 nM |
| NC1=N[C@@](c2cc(NC(=O)c3ncc(Br)cc3O)ccc2F)(C(F)F)COC1 [Example 119, 5-Bromo-3-hydroxy-pyridine-2-carboxylic acid [3-((R)-5-amino-3-difluoromethyl-3,6-dihydro-2H-[1,4]oxazin-3-yl)-4-fluoro-phenyl]-amide hydrochloride] | 10 nM |
| Cc1cc(Br)cnc1C(=O)Nc1ccc(F)c(C2(CF)COCC(N)=N2)c1 (stereo not shown) [Example 90, 5-Bromo-3-methyl-pyridine-2-carboxylic acid [3-(5-amino-3-fluoromethyl-3,6-dihydro-2H-[1,4]oxazin-3-yl)-4-fluoro-phenyl]-amide hydrochloride] | 39 nM |
| CC1(c2cccc(NC(=O)C3CCC(F)(F)CC3)c2)COCC(N)=N1 (stereo not shown) [Example 26, reference compound] | > 130000 nM |
| C[C@@]1(c2cc(NC(=O)c3ccc(Br)cn3)ccc2F)CO[C@@](C)(C(F)(F)F)C(N)=N1 (relative stereo) [Example 68, 5-Bromo-pyridine-2-carboxylic acid [3-((3R*,6R*)-5-amino-3,6-di-methyl-6-trifluoromethyl-3,6-di-hydro-2H-[1,4]oxazin-3-yl)-4-fluoro-phenyl]-amide hydrochloride] | 11 nM |
| Cc1nc(C(=O)Nc2cc(Br)cc([C@]3(C)COCC(N)=N3)c2)co1 [Example 59, 2-Methyl-oxazole-4-carboxylic acid [3-((R)-5-amino-3-methyl-3,6-dihydro-2H-[1,4]oxazin-3-yl)-5-bromo-phenyl]-amide] | 240 nM |
| Cc1ccc(C(=O)Nc2ccc(F)c([C@]3(C(F)F)COCC(N)=N3)c2)nc1 [Example 143, 5-Methyl-pyridine-2-carboxylic acid [3-((R)-5-amino-3-difluoromethyl-3,6-dihydro-2H-[1,4]oxazin-3-yl)-4-fluoro-phenyl]-amide hydrochloride] | 110 nM |
| C#CCOc1cnc(C(=O)Nc2ccc(F)c([C@]3(C(F)F)COCC(N)=N3)c2)cn1 [Example 167, 5-Prop-2-ynyloxy-pyrazine-2-carboxylic acid [3-((R)-5-amino-3-difluoromethyl-3,6-dihydro-2H-[1,4]oxazin-3-yl)-4-fluoro-phenyl]-amide] | 3 nM |

| Structure (SMILES) | IC50 |
| --- | --- |
| COc1cnc(C(=O)Nc2ccc(F)c([C@]3(C(F)F)COCC(N)=N3)c2)c(C)n1 [Example 174, 5-Methoxy-3-methyl-pyrazine-2-carboxylic acid [3-((R)-5-amino-3-difluoromethyl-3,6-dihydro-2H-[1,4]oxazin-3-yl)-4-fluoro-phenyl]-amide] | 210 nM |
| N#Cc1ccc(C(=O)Nc2ccc(F)c(C3(C(F)(F)F)CCOCC(N)=N3)c2)nc1 (stereo not shown) [Example 98, 5-Cyano-pyridine-2-carboxylic acid [3-(3-amino-5-trifluoromethyl-2,5,6,7-tetrahydro-[1,4]oxazepin-5-yl)-4-fluoro-phenyl]-amide hydrochloride] | 240 nM |
| NC1=N[C@@](c2cc(NC(=O)c3cc(Br)co3)ccc2F)(C(F)F)COC1 [Example 125, 4-Bromo-furan-2-carboxylic acid [3-((R)-5-amino-3-difluoromethyl-3,6-dihydro-2H-[1,4]oxazin-3-yl)-4-fluoro-phenyl]-amide hydrochloride] | 78 nM |
| Cc1nc(C(=O)Nc2cc(Br)cc([C@]3(C)COCC(N)=N3)c2)c(C)o1 [Example 58, 2,5-Dimethyl-oxazole-4-carboxylic acid [3-((R)-5-amino-3-methyl-3,6-dihydro-2H-[1,4]oxazin-3-yl)-5-bromo-phenyl]amide] | 780 nM |
| NC1=NC(c2cc(NC(=O)c3ccc(Cl)cn3)ccc2F)(C(F)F)COC1 (stereo not shown) [Example 43, 5-Chloro-pyridine-2-carboxylic acid [3-(5-amino-3-difluoromethyl-3,6-dihydro-2H-[1,4]oxazin-3-yl)-4-fluoro-phenyl]-amide] | 62 nM |
| C[C@@]1(c2cc(NC(=O)c3ccc(C#N)cn3)ccc2F)CO[C@@](C)(C(F)(F)F)C(N)=N1 [Example 73, 5-Cyano-pyridine-2-carboxylic acid [3-((3R,6R)-5-amino-3,6-dimethyl-6-trifluoro-methyl-3,6-dihydro-2H-[1,4]oxazin-3-yl)-4-fluoro-phenyl]-amide hydrochloride] | 26 nM |
| COCCOc1cnc(C(=O)Nc2ccc(F)c([C@]3(C(F)F)COCC(N)=N3)c2)c(C)n1 [Example 178, 5-(2-Methoxy-ethoxy)-3-methyl-pyrazine-2-carboxylic acid [3-((R)-5-amino-3-difluoromethyl-3,6-dihydro-2H-[1,4]oxazin-3-yl)-4-fluoro-phenyl]-amide] | 170 nM |
| NC1=N[C@@](c2cc(NC(=O)c3ccc(OCF)cn3)ccc2F)(C(F)F)COC1 [Example 139, 5-Fluoromethoxy-pyridine-2-carboxylic acid [3-((R)-5-amino-3-difluoromethyl-3,6-dihydro-2H-[1,4]oxazin-3-yl)-4-fluoro-phenyl]-amide] | 75 nM |
| NC1=N[C@@](c2cc(NC(=O)c3cc4cccn4cn3)ccc2F)(C(F)F)COC1 [Example 163, Pyrrolo[1,2-c]pyrimidine-3-carboxylic acid [3-((R)-5-amino-3-difluoromethyl-3,6-dihydro-2H-[1,4]oxazin-3-yl)-4-fluoro-phenyl]-amide] | 680 nM |
| NC1=NC(c2cccc(NC(=O)c3ncc(C(F)(F)F)cc3Cl)c2)(C(F)F)COC1 (stereo not shown) [Example 40, 3-Chloro-5-trifluoromethyl-pyridine-2-carboxylic acid [3-(5-amino-3-difluoromethyl-3,6-dihydro-2H-[1,4]oxazin-3-yl)-phenyl]amide] | 1000 nM |
| COCCOc1cnc(C(=O)Nc2ccc(F)c([C@]3(C)CO[C@@](C)(C(F)(F)F)C(N)=N3)c2)cn1 [Example 74, 5-(2-Methoxy-ethoxy)-pyrazine-2-carboxylic acid [3-((3R,6R)-5-amino-3,6-dimethyl-6-trifluoromethyl-3,6-dihydro-2H-[1,4]oxazin-3-yl)-4-fluoro-phenyl]-amide hydrochloride] | 79 nM |
| CC(C)Oc1cnc(C(=O)Nc2ccc(F)c([C@]3(C(F)F)COCC(N)=N3)c2)cn1 [Example 170, 5-Isopropoxy-pyrazine-2-carboxylic acid [3-((R)-5-amino-3-difluoromethyl-3,6-dihydro-2H-[1,4]oxazin-3-yl)-4-fluoro-phenyl]-amide] | 340 nM |
| NC1=N[C@@](c2cc(NC(=O)c3ncc(Br)cc3N)ccc2F)(C(F)F)COC1 [Example 165, 3-Amino-5-bromo-pyridine-2-carboxylic acid [3-((R)-5-amino-3-difluoromethyl-3,6-dihydro-2H-[1,4]oxazin-3-yl)-4-fluoro-phenyl]-amide] | 8 nM |
| Cc1cnc(C(=O)Nc2cccc(C3(C)COCC(N)=N3)c2)cn1 (stereo not shown) [Example 6, 5-Methyl-pyrazine-2-carboxylic acid [3-(5-amino-3-methyl-3,6-dihydro-2H-[1,4]oxazin-3-yl)-phenyl]-amide] | 4700 nM |
| CC1(c2cccc(NC(=O)c3ccc(C#N)cn3)c2)COCC(N)=N1 (stereo not shown) [Example 14, 5-Cyano-pyridine-2-carboxylic acid [3-(5-amino-3-methyl-3,6-dihydro-2H-[1,4]oxazin-3-yl)-phenyl]-amide] | 160 nM |
